The text below walks through data of patent US20160074428A1, “COMPOSITIONS AND METHODS FOR THE TREATMENT OF HUMAN IMMUNODEFICIENCY VIRUS INFECTION” (THE CHILDREN'S HOSPITAL OF PHILADELPHIA, priority 2013, published 2016).

No end group written: not given here.

One experiment concerns the target T1, NK1R (Homo sapiens, UniProt P25103).
T1 construct: endogenous in cells; host or cells: freshly isolated human blood monocytes (gated within PBMC)
The experiment is described as follows: Intracellular calcium measurement by flow cytometry (Fluo-4/Fura-red ratio) in monocytes. Type of experiment: cell-based. As to the method: (§1) Intracellular calcium measurements. Freshly isolated monocytes were washed in Hank's balanced salt solution (HBSS) containing 1 mM calcium chloride then loaded with Fluo-4 AM (2 μM) and Fura-red AM (2 μM). Intracellular calcium recordings were performed using the Accuri C6 Analyzer (BD Biosciences, San Jose, Calif.). Fluorescence intensities were recorded in FL1-A (Fluo-4 AM) and FL3-A (Fura-red AM) channels. Intracellular calcium measurements were quantified by calculating the ratio between FL1-A/FL3-A values as a derived parameter in FlowJo 7.6.5 for Windows (Treestar Inc., Ashland, Oreg.) as previously described (1).
Gating on lymphocyte and monocyte populations was performed based of light scattering properties of the cells (FIG. 1A).

The subject of a further experiment is HIV-Bal. The experiment is described as follows: HIV-Bal infection of macrophages, HIV gag mRNA by real time RT-PCR. The class given is cell-based, HIV-1. To be noted: 0, 2, 10 or 20 μg/ml HbHp complex, 7 days postinfection. As to the method: HIV infection. Macrophages were incubated with HIV-Bal virus overnight, and then extensively washed to remove unbound virus. The culture medium and the reagents were replaced twice weekly. At days 5, 7, 9 and 11 post HIV infection, cellular RNA was extracted from the MDM for assessment of HIV gag mRNA expression using real time RT-PCR assays.
RNA Extraction and Real-Time RT PCR Assays. Total RNA was extracted from macrophages using RNeasy kit (Qiagen), and the potential DNA contamination was eliminated by on-column DNase digestion as instructed by the manufacturer (Qiagen). RNA concentration was determined by Qubit fluorometer using Quant-iT RNA Assay kit (Invitrogen, Eugene, Oreg.).
Total RNA (1 μg) was reverse transcribed using AffinityScript QPCR cDNA Synthesis kit ([…], Cedar Creek, Tex.) with random primer as instructed by the manufacture. Reverse transcriptase negative controls were used in order to control for genomic DNA contamination. 1 μl of the resulting cDNA was used as a template for real-time PCR amplification.
RNA Interference (RNAi). RNAi CD163 pool and control RNAi was purchased from Santa Cruz Biotechnologies. The siRNAs pool was transfected into macrophages with Lipofectamine RNAimax (Invitrogen), following the manufacturer's protocol. Experiments were carried out 48 h after transfection.

For experiment [1], the system named is HIV-GFP-tagged reporter virus pSF162R3 Nef+. The experiment is described as follows: Infection of macrophages with HIV-GFP-tagged reporter virus, GFP fluorescence. The class given is cell-based. To be noted: 0, 2, 10 or 50 μg/ml HbHp complex, 7 days postinfection. As for the experimental part:
FIG. 5. Effect of HbHp-complexes on HIV infection in macrophages. Hb and Hp were added to macrophages in a 1:1 molar ratio and incubated for 2 h at 37° C. a) Macrophages, treated with 0, 2, 10 or 20 μg/ml of HbHp complex and infected with HIV-BaL, were assayed 7 days postinfection for HIV GAG by real time RT PCR. b) Macrophages, treated with 0, 2, 10 or 50 μg/ml of HbHp complex and infected with HIV-GFP-tagged reported virus, were assayed 7 days postinfection for GFP fluorescence. c) Representative images of macrophages, treated with 0, 2, 10, and 50 μg/ml of HbHp complex and infected with HIV-GFP-tagged reported virus 7 days postinfection. Average results of three independent experiments are presented as mean±SD.
Virus. The M-tropic HIV-1 R5 strain Bal was obtained from the NIH AIDS Reagent Program. The HIV-GFP-tagged reporter virus pSF162R3 Nef+, was made based on HIV-SF162 strain and was a gift from Dr. Amanda Brown (John Hopkins School of Medicine, Baltimore, Md.) (45).
Microscopy. Macrophages were infected with HIV-GFP-tagged reported virus pSF162R3 Nef+. […] GFP intensity was quantified using ImageJ (National Institute of Mental Health, Bethesda, Md., USA).

The subject of another experiment is HIV. The note with it: cited from earlier work.
The subject of a further experiment is lymphocytes. As to the kind of experiment: Intracellular calcium measurement by flow cytometry in lymphocytes. Type of experiment: cell-based, human. The note with it: SP at concentrations as high as 30 μM; data not shown. As to the method:
as §1
SP induces intracellular calcium increase in human monocytes. Our previous studies have shown that in U373MG cell NK1R stimulates the release of Ca^2+ from intracellular stores though activation of phospholipase C. To assess whether the effect of SP on monocytes is due to activation of NK1R we examined the levels of intracellular Ca^2+. We used a ratiometric calcium assay, where PBMC were loaded with Fluo-4 and Fura-red, then stimulated again with SP or appropriate agonist. Gating on lymphocyte and monocyte populations was performed based of light scattering properties of the cells (FIG. 1A). […] This pharmacology profile of NK1R, with high concentrations of SP required to elicit a response is consistent with the truncated form of NK1R.

A further experiment concerns CD163. The experiment is described as follows: CD163 measurement by flow cytometry on monocytes/macrophages. The class given is cell-based, human. To be noted: for CD163 expression, time course: 10 μM SP. As for the experimental part:
CD163 measurement by flow cytometry. For time-course experiments, freshly isolated monocytes were stimulated with either IL-10 (20 ng/ml) or SP (10 μM) and after 0, 2, 4 and 6 days of culture the cells were detached and the expression of membrane-bound CD163 was quantified by flow cytometry. For the dose-response experiments, freshly isolated monocytes were stimulated with either IL-10 (0.2, 0.6, 2, 6 or 20 ng/ml) or SP (0.3, 1, 3, 10 or 30 μM) and after 4 days of culture the cells were detached for CD163 measurement. Macrophages were detached using Lidocaine (4 mg/ml) in HBSS with EDTA (1 mM) for 30 minutes at 37° C. Cells were labeled with anti-human CD163 antibody (clone R-20) conjugated with PE (Trillium Diagnostics, Scarborough, Me.) for 30 minutes at room temperature. After labeling, cells were washed and resuspended in Hank's balanced salt solution (HBSS). Flow cytometry experiments were performed on an Accuri C6 analyzer (BD Biosciences, San Jose, Calif.) in the Flow Cytometry Core Laboratory of the Children's Hospital of Philadelphia Research Institute.

T1 sequence (P25103 1-311): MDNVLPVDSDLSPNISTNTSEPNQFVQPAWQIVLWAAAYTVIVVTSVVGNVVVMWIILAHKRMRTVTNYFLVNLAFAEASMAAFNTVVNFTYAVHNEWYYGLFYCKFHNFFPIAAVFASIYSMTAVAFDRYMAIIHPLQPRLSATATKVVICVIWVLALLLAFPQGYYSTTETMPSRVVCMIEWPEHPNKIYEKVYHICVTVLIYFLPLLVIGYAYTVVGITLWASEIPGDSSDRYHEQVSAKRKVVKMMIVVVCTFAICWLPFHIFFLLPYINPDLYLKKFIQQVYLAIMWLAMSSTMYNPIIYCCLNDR

Take `C[C@@H](O[C@H]1OCCN(Cc2n[nH]c(=O)[nH]2)[C@H]1c1ccc(F)cc1)c1cc(C(F)(F)F)cc(C(F)(F)F)c1` [Aprepitant, aprepitant]: the “effect on SP induced calcium response” value on NK1R (pre-treatment with 50 μM for 15 minutes before adding 10 μM SP) is listed as “abolished SP induced calcium response”.
As for “Hb-Hp complexes: hemoglobin-haptoglobin complexes, Hb and Hp added in a 1:1 molar ratio; ligand of CD163”, in the experiment with HIV-Bal, the “HIV infection of macrophages (HIV GAG, RT PCR)” value is “concentration-dependent decrease”. Also, in experiment [1], the “number of infected cells/well (GFP fluorescence)” value is recorded as “concentration-dependent decrease”.
For the molecule Neurokinin B [NKB], the “Ca2+ response to agonist” value in the experiment with NK1R (10 μM agonist, SP induced a response in the same samples) is given as “failed to induce Ca^2+ responses”.
Regarding “Substance P (RPKPQQFFGLM; ends and bridges not checked; UniProt P20366 58-68, looked up) [SP, undecapeptide neurotransmitter of the tachykinin family; purchased from Sigma]”, the “effect on HIV infection of MDM” value in the experiment on HIV was “promotes HIV infection”. The “intracellular Ca2+ increase in lymphocytes” value with lymphocytes is on record as “did not induce intracellular Ca^2+ increase”. In the experiment on CD163, the “extent of CD163 induction compared with IL-10” value was “lower extent than that induced by IL-10”. The “CD163 expression, time course” value in the experiment on CD163 (4 days) is given as “significant increase”; in the experiment on CD163 (6 days) it was “did not persist”. Further, the “CD163 expression, dose response” value in the experiment on CD163 (SP 0.3-10 μM, 4 days) is “significant increase”. Also, the “levels of membrane bound CD163 with increasing doses” value in the experiment with CD163 (monocytes in AIM V medium without FBS, 4 days after treatment) is “progressively higher”.

B1: interleukin-10 (protein, UniProt P22301 19-178, looked up)
Interleukin-10: SPGQGTQSENSCTHFPGNLPNMLRDLRDAFSRVKTFFQMKDQLDNLLLKESLLEDFKGYLGCQALSEMIQFYLEEVMPQAENQDPDIKAHVNSLGENLKTLRLRLRRCHRFLPCENKSKAVEQVKNAFNKLQEKGIYKAMSEFDIFINYIEAYMTMKIRN
notes: anti-inflammatory mediator that upregulates CD163 expression
On to B1, for which the “CD163 expression, dose response” value with CD163 (0.2 ng/ml IL-10, 4 days of culture) is “significant increase”; in the experiment with CD163 (20 ng/ml IL-10, 4 days of culture) it was “had not induced maximal increase”. Further, the “expression of CD163, time course” value with CD163 (20 ng/ml IL-10, 2 days) is “significant increase”; in the experiment on CD163 (20 ng/ml IL-10, days 4 and 6, compared with day 2), “higher”.
